The record followed here is patent US12600714B2, “Substituted pyrazinecarboxamide compounds for treating diseases related to EGFR mutation” (WIGEN BIOMEDICINE TECHNOLOGY (SHANGHAI) CO., LTD., priority 2020, dated 2026).

In one assay the test system is EGFR (del19/T790M/C797S). The assay can be described thus: HTRF inhibitory activity assay against EGFR (del19/T790M/C797S) enzyme. In kind it is biochemical. The essentials:
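Wild-type or mutant EGFR preincubated with serially diluted compound 10 min at 28 °C, then reacted 40 min at room temperature with biotinylated TK substrate and ATP. Phosphorylation detected by HTRF (Eu-cryptate anti-TK antibody, streptavidin-XL665, 60 min), 665/615 nm ratio; % inhibition and IC50 vs control.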
(In TR-FRET formats the signal depends on donor and acceptor labels being close together.)

The next assay deals with EGFR (L858R/T790M/C797S) (Homo sapiens, UniProt P00533, C797S/L858R/T790M). Description: HTRF inhibitory activity assay against EGFR (L858R/T790M/C797S) enzyme. The class given is biochemical. Particulars: read-out: EGFR (L858R/T790M/C797S) inhibition (%) (0.3 nM compound). On the procedure: (§1) Inhibitory Activity Assay of the Compounds Disclosed Herein Against EGFR (del19/T790M/C797S), EGFR (L858R/T790M/C797S) or EGFR (WT) Enzymes
EGFR (L858R/T790M/C797S), sequence (P00533 25-1210 T790M/C797S/L858R): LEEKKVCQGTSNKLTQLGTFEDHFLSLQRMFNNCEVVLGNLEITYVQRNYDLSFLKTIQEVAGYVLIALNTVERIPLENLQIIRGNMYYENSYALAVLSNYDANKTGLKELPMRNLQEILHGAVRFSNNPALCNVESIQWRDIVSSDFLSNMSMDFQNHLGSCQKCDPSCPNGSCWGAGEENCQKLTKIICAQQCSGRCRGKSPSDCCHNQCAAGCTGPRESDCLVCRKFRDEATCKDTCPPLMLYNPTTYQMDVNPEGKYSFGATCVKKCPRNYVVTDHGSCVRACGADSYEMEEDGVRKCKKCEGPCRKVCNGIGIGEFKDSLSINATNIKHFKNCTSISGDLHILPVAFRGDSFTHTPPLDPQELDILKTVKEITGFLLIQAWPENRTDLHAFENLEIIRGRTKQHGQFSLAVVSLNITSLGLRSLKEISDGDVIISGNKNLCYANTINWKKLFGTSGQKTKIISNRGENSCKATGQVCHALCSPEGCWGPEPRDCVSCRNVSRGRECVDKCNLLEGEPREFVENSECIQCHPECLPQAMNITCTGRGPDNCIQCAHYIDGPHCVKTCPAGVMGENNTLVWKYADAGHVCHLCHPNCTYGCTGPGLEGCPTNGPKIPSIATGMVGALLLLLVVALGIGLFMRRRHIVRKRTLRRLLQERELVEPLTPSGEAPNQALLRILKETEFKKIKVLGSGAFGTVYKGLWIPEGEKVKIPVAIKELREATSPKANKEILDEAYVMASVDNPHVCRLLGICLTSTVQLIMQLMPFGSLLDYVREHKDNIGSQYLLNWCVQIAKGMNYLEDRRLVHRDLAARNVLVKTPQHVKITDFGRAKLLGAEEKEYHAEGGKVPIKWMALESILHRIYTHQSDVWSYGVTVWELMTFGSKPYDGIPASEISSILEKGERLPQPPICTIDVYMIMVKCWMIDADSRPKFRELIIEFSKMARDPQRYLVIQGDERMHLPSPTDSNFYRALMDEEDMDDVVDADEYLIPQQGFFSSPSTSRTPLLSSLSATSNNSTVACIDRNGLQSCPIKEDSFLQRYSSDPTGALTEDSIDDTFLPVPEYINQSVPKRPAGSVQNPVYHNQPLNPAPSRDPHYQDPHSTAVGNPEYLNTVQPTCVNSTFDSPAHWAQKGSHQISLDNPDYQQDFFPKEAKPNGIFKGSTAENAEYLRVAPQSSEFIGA
(§2) The inhibitory effects of the compounds against EGFR (del19/T790M/C797S), EGFR (L858R/T790M/C797S) or EGFR (WT) enzyme activity was determined by using HTRF. The procedures are as follows:
(§3) The WT or mutant EGFR proteins were incubated with a serially diluted compounds at 28° C. for 10 min followed by addition of biotin-labeled general tyrosine kinase (TK) substrate and ATP. The mixture was incubated at room temperature for 40 min for reaction. After the termination of the reaction, an Eu3+-Cryptate-labeled antibody against TK and streptavidin-XL665 were added and the mixture was incubated at room temperature for 60 min. The luminescences at 615 nm and 665 nm were detected and the ratio of 665/615 was calculated to quantify the level of TK substrate phosphorylation. Inhibition % and IC50 of the compounds were calculated relative to the control group.

Another assay concerns the target EGFR (WT) (Homo sapiens, UniProt P00533). The assay can be described thus: HTRF inhibitory activity assay against EGFR (WT) enzyme. In kind it is biochemical. Here is the method: as §1, §2, §3
Assay [1] concerns the target Ba/F3 (EGFR^del19/T790M/C797S) triple-mutant cells (Homo sapiens, UniProt P00533, T790M/C797S, cells depend on it, form not given). Description: Antiproliferative activity against Ba/F3 (EGFR del19/T790M/C797S) triple-mutant cells, Cell Titer Glow. In kind it is cell-based. Particulars: three days after addition of compounds; read-out: Antiproliferative activity BaF3(EGFR^del19/T790M/C797S) IC50. The essentials:
(§4)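 Cells seeded (3000 Ba/F3 del19/T790M/C797S or 2000 A431 per well), compounds added after one day, serially diluted up to 500 nM for Ba/F3 and up to 10 μM for A431. Growth read by Cell Titer Glow after 3 days; IC50 from % growth inhibition.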
For orientation: ATP-based viability assays read luminescence as a measure of living cells.

Another assay relates to A431 (EGFR WT) cells. The assay can be described thus: Antiproliferative activity against A431 (EGFR WT) cells, Cell Titer Glow. The class given is cell-based. Particulars: Homo sapiens, A-431, 72 h; three days after addition of compounds; read-out: Antiproliferative activity A431 wild-type (WT) IC50. The essentials: as §4
Assay [2] relates to H1975 cells carrying EGFR T790M mutation. Description: In vivo pharmacodynamic study, mouse H1975 subcutaneous xenograft tumor model. Details: species or system BALB/c nude mice. Particulars: intragastric once daily, day 28, H1975 xenograft. Here is the method: In Vivo Pharmacodynamic Study—Mouse H1975 Subcutaneous Xenograft Tumor Model
(§5) BALB/c nude mice were grafted subcutaneously on the left dorsum with 5×10^6 H1975 cells carrying EGFR T790M mutation. After the tumor grew to 100-150 mm^3, the mice were randomly divided into the following groups for intragastric administration once daily: group 1: vehicle control; group 2: compound 511 (60 mg/kg); and group 3: compound 511 (80 mg/kg). The tumor volume was measured twice weekly and at the end of treatment. Tumor growth inhibition of the compound was calculated according to the following equation: tumor growth inhibition (TGI)=1−(tumor volume on day 28 in treatment group−tumor volume on day 1 in treatment group)/(tumor volume on day 28 in vehicle control group−tumor volume on day 1 in treatment group).

In assay [3] the test system is PC9 cells with EGFR Del19/T790M/C797S overexpression. Description: In vivo pharmacodynamic study, mouse PC9 (EGFR Del19/T790M/C797S) subcutaneous xenograft tumor model. Details: species or system BALB/c nude mice. Particulars: intragastric once daily, day 28, PC9 (EGFR Del19/T790M/C797S) xenograft. On the procedure:
In Vivo Pharmacodynamic Study—Mouse PC9(EGFR Del19/T790M/C797S) Subcutaneous Xenograft Tumor Model
as §5, with “PC9” for “H1975”, “with” for “carrying”, “Del19/T790M/C797S overexpression.” for “T790M mutation.”

Ba/F3 (EGFR^del19/T790M/C797S) triple-mutant cells, sequence (P00533 with tags, fused parts or gaps DEL746-750/T790M/C797S, form open): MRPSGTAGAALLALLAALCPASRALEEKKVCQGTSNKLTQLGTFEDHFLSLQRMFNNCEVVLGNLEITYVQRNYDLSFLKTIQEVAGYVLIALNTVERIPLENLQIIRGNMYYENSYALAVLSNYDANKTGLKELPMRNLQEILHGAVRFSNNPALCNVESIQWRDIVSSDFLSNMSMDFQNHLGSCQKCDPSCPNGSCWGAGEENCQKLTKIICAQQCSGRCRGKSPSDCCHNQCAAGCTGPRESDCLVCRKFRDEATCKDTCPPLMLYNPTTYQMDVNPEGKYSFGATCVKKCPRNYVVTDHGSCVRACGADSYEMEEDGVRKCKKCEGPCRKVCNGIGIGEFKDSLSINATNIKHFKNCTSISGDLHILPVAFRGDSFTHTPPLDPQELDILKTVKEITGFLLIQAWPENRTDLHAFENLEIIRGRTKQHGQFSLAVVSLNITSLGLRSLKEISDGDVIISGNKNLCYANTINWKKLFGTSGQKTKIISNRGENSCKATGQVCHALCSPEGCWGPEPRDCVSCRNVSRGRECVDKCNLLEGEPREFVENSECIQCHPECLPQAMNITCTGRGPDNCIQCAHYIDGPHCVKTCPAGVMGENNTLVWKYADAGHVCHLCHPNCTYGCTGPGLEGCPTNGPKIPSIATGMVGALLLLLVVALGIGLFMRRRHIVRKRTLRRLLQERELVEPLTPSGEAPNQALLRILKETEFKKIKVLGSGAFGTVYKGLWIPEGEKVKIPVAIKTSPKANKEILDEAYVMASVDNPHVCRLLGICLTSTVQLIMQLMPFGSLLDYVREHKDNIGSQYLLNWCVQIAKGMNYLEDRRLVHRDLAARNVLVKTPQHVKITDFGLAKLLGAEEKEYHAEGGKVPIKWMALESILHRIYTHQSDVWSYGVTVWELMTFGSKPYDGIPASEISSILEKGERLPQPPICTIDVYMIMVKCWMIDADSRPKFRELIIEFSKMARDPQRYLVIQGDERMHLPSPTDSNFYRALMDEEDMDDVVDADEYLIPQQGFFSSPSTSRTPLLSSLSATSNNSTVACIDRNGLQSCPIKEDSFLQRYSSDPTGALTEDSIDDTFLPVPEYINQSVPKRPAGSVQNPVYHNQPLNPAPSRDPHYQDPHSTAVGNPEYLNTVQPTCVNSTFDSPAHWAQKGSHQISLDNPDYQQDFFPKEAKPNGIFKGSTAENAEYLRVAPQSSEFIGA
EGFR (WT), sequence (P00533 25-1210): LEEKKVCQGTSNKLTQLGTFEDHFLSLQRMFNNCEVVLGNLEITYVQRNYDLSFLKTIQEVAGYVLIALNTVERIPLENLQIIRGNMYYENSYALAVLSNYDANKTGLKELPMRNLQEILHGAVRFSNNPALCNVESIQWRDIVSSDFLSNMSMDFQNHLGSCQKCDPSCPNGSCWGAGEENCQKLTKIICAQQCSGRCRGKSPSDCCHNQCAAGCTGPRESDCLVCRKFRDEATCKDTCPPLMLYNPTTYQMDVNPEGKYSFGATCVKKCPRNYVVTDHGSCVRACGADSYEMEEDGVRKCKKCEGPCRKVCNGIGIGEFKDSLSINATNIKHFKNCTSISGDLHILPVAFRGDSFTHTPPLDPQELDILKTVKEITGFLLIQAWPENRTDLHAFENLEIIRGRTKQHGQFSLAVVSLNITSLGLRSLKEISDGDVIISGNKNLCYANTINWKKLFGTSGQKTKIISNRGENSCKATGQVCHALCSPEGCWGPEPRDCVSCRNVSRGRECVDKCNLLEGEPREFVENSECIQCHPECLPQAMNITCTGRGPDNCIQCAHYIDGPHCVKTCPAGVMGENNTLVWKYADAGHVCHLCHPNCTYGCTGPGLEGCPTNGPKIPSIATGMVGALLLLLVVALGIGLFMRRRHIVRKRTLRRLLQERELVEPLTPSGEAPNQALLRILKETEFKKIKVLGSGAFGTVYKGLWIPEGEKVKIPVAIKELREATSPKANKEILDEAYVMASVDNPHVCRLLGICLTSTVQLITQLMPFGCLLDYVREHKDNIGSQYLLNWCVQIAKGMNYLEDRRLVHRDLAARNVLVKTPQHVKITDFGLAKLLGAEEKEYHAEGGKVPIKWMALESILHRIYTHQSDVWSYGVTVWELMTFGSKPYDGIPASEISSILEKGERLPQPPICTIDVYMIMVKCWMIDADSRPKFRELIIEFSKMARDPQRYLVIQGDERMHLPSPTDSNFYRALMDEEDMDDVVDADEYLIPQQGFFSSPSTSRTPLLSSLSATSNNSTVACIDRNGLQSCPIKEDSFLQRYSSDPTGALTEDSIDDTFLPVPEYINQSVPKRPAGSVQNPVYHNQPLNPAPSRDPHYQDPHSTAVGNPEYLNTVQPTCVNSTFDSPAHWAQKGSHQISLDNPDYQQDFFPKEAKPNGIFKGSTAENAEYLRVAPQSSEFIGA

A word on the IC50: it is the concentration needed to halve the response being measured. Regarding `CN1CCN(C2CCN(c3ccc(Nc4nc(NC5CCOCC5)c(-c5cccc6[nH]ccc56)nc4C(N)=O)cc3)CC2)CC1` [compound 511, 6-(1H-indol-4-yl)-3-((4-(4-(4-methylpiperazin-1-yl)piperidin-1-yl)phenyl)amino)-5-((tetrahydro-2H-pyran-4-yl)amino)pyrazine-2-carboxamide], the “EGFR (del19/T790M/C797S) inhibition (%) (0.3 nM compound)” value (shortened to “EGFR (del19/T790M/C797S) inhibition (%)”) with EGFR (del19/T790M/C797S) is on record as “+++ (+++ indicates an inhibition greater than 50%.)”. On EGFR (L858R/T790M/C797S), the inhibition at 0.0003 µM is above 50%. The IC50 amounted to 2.82 nM at EGFR (WT) and 60 nM in the assay on A431 (EGFR WT) cells. Further, the GI50 in assay [1] came to 9 nM. Also, the “TGI (tumor growth inhibition)” value in assay [2] (60 mg/kg) was 99%; in assay [2] (80 mg/kg) it was 104%; in assay [3] (60 mg/kg) it was 87.41%; in assay [3] (80 mg/kg), 93.17%.

For `CN1CCN(C2CCN(c3ccc(Nc4nc(N[C@H]5CC[C@H](O)CC5)c(-c5cccc6[nH]ccc56)nc4C(N)=O)cc3)CC2)CC1` [compound 526], the “EGFR (del19/T790M/C797S) inhibition (%)” value with EGFR (del19/T790M/C797S) is “+++ (+++ indicates an inhibition greater than 50%.)”. The inhibition at 0.0003 µM on EGFR (L858R/T790M/C797S) is above 50%. For the same molecule, the figures for the IC50 at EGFR (WT) and in the assay with A431 (EGFR WT) cells were 0.33 nM and 100 nM, respectively. Moreover, the GI50 in assay [1] worked out at 5 nM.

On to `CN1CCN(C2CCN(c3ccc(Nc4nc(NC5CC5)c(-c5cccc6[nH]ccc56)nc4C(N)=O)cc3)CC2)CC1` [compound 522], for which the “EGFR (del19/T790M/C797S) inhibition (%)” value in the assay on EGFR (del19/T790M/C797S) is on record as “+++ (+++ indicates an inhibition greater than 50%.)”. Also, the inhibition at 0.0003 µM at EGFR (L858R/T790M/C797S) is above 50%. The results for the half-maximal inhibitory concentration (IC50) against EGFR (WT) and with A431 (EGFR WT) cells were 0.22 nM and 30 nM, respectively. Moreover, in assay [1], the GI50 is 2 nM.

Regarding `CC(C)Nc1nc(Nc2ccc(N3CCC(N4CCN(C)CC4)CC3)cc2)c(C(N)=O)nc1-c1cccc2[nH]ccc12` [compound 521], in the assay with EGFR (del19/T790M/C797S), the “EGFR (del19/T790M/C797S) inhibition (%)” value is recorded as “+++ (+++ indicates an inhibition greater than 50%.)”. The inhibition at 0.0003 µM at EGFR (L858R/T790M/C797S) is above 50%. The figures for the IC50 on EGFR (WT) and with A431 (EGFR WT) cells were 0.27 nM and 50 nM, respectively. In assay [1], the GI50 came out at 4 nM.

Take `CCc1cc(Nc2nc(NC3CC4(COC4)C3)c(-c3cc[nH]n3)nc2C(N)=O)ccc1N1CCC(N2CCN(C)CC2)CC1` [compound 503]: in the assay on EGFR (del19/T790M/C797S), the “EGFR (del19/T790M/C797S) inhibition (%)” value is on record as “+++ (+++ indicates an inhibition greater than 50%.)”. Also, on EGFR (L858R/T790M/C797S), the inhibition at 0.0003 µM was at most 20%. For the same molecule, the IC50 against EGFR (WT) stood at 10.2 nM; in the assay on A431 (EGFR WT) cells, 660 nM. Further, in assay [1], the GI50 was determined as 61 nM.

Turning to `CN1CCN(C2CCN(c3ccc(Nc4nc(NC5CCOCC5)c(-c5cc[nH]n5)nc4C(N)=O)cc3)CC2)CC1` [compound 55, 3-((4-(4-(4-methylpiperazin-1-yl)piperidin-1-yl)phenyl)amino)-6-(1H-pyrazol-3-yl)-5-((tetrahydro-2H-pyran-4-yl)amino)pyrazine-2-carboxamide], the “EGFR (del19/T790M/C797S) inhibition (%)” value with EGFR (del19/T790M/C797S) is “+++ (+++ indicates an inhibition greater than 50%.)”. The inhibition at 0.0003 µM on EGFR (L858R/T790M/C797S) was at most 20%. Besides, the IC50 at EGFR (WT) was above 300 nM; in the assay on A431 (EGFR WT) cells it was 70 nM. Further, in assay [1], the GI50 was 16 nM.

As for `CN1CCN(C2CCN(c3ccc(Nc4nc(NC5CCOCC5)c(-c5ccccc5)nc4C(N)=O)cc3)CC2)CC1` [compound 1], the “EGFR (del19/T790M/C797S) inhibition (%)” value in the assay with EGFR (del19/T790M/C797S) is “+ (+ indicates an inhibition less than or equal to 20%)”. Moreover, the inhibition at 0.0003 µM at EGFR (L858R/T790M/C797S) is at most 20%. The results for the IC50 on EGFR (WT) and in the assay with A431 (EGFR WT) cells were above 300 nM and 2500 nM, respectively. Besides, in assay [1], the GI50 stood at 236 nM.
